In US20040029178A1, “Novel g protein-coupled receptor proteins and dnas thereof” (priority 2000, published 2004):
pIC50: −log10 of the molar value. Peptide text beside a SMILES is read from it.

target: T1, TGR26 (Rattus norvegicus, UniProt Q56UD9); test: Receptor binding using [125I-Tyr10]-hGPR8L (1-23) and membrane fraction of TGR26 expressing CHO cells; conditions: membrane fraction of TGR26 expressing CHO cells, [125I-Tyr10]-hGPR8L (1-23), method of Example 8
T1 construct: expressed in transfected cells; whole cells in A1, membrane fraction in A2 and A3
T1 sequence (Q56UD9 1-329): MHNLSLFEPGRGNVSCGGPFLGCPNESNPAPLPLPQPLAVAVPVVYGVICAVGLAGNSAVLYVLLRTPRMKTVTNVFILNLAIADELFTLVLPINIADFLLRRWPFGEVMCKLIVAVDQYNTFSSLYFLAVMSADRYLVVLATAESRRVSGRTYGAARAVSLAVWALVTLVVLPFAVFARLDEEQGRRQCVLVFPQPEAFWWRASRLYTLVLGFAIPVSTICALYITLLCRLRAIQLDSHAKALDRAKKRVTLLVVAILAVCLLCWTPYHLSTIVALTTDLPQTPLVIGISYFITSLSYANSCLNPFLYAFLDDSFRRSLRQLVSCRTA
Procedure: Using [^125I-Tyr^10]-hGPR8L (1-23) prepared by the method described in Reference Example 15 and a cell membrane fraction prepared from TGR26 expressing cells as described in Example 6, a receptor binding assay was carried out as follows.
Cell membrane fraction prepared from TGR26 expressing cells was diluted to various concentration with assay buffer (25 mM Tris-HCl, 5 mM EDTA, 0.05% CHAPS (3-[(3-Cholamidopropyl) Dimethyl-Ammonio]-1-Propanesulfonate), 0.1% BSA, 0.5 mM PMSF, 1 μg/ml Pepstatin, 20 μg/ml Leupeptin, 4 μg/ml E-64, pH 7.4), and 200 μl each of the diluent was dispensed into polypropilene test tube (Falcon 2053). In order to determine an amount of maximum binding, 2 μl of DMSO and 2 μl of 7 nM [^125I-Tyr^10]-hGPR8L (1-23) were added to the membrane fraction solution. Further, in order to determine a non-specific binding, 2 μl of 100 μM hGPR8L (1-23)/DMSO solution and 2 μl of 7 nM [^125I-Tyr^10]-hGPR8L (1-23) were added to the membrane fraction solution. The reaction was done at 25° C. for 75 minutes, and the reaction mixture was filtered by suction filtration using Whatman glassfilter (GF-F) treated with polyethyleneimine. In addition, the filter was washed twice with 1.5 ml of washing buffer (25 mM Tris-HCl, 5 mM EDTA, 0.05% CHAPS, 0.1% BSA, pH 7.4). After filtration, a radioactivity remaining on the filter was counted using γ-counter, and an amount of specific binding was estimated by subtracting an amount of non-specific binding from an amount of maximum binding.
Where the concentration of membrane fraction was set to 3 μg/ml, an inhibition for the specific binding of [125I-Tyr^10]-hGPR8L (1-23) to the membrane fraction of TGR26 expressing cells by hGPR8L (1-23) and hGPR8L (1-30) was investigated.
A receptor binding activity of human- and porcine-homologue derivatives of GPR8 ligand peptide obtained in the reference examples was measured using a membrane fraction of TGR26 expressing CHO cells and [^125I-Tyr^10]-hGPR8L (1-23) by the method described in Example 8. The receptor binding activity is represented by concentration of 50% inhibition for binding (IC50 value).

With `CSCC[C@H](NC(=O)[C@H](CC(C)C)NC(=O)[C@H](CC(C)C)NC(=O)CNC(=O)[C@H](C)NC(=O)[C@H](C)NC(=O)[C@H](CCCNC(=N)N)NC(=O)CNC(=O)[C@@H](NC(=O)[C@@H](NC(=O)[C@H](Cc1c[nH]cn1)NC(=O)[C@H](Cc1ccc(O)cc1)NC(=O)[C@H](CCCNC(=N)N)NC(=O)[C@@H]1CCCN1C(=O)[C@H](CO)NC(=O)[C@H](C)NC(=O)[C@@H](NC(=O)[C@H](Cc1c[nH]cn1)NC(=O)[C@H](CCCCN)NC(=O)[C@H](Cc1ccc(O)cc1)NC(C)=O)C(C)C)[C@@H](C)O)C(C)C)C(=O)NCC(=O)N[C@@H](CC(C)C)C(=O)O` [Ac-hGPR8L (2-23), Ac-Tyr-Lys-His -Val-Ala-Ser-Pro-Arg-Tyr-His-Thr-Val-Gly-Arg-Ala-Ala-Gly-Leu-Leu-Met-Gly-Leu] (Ac-YKHVASPRYHTVGRAAGLLMGL-OH; C-terminus assumed) as the compound, how does the pIC50 read?
Its pIC50 is 6.24.

How did the pIC50 turn out when `CSCC[C@H](NC(=O)[C@H](CC(C)C)NC(=O)[C@H](CC(C)C)NC(=O)CNC(=O)[C@H](C)NC(=O)[C@H](C)NC(=O)[C@H](CCCNC(=N)N)NC(=O)CNC(=O)[C@@H](NC(=O)[C@@H](NC(=O)[C@H](Cc1c[nH]cn1)NC(=O)[C@H](Cc1ccc(O)cc1)NC(=O)[C@H](CCCNC(=N)N)NC(=O)[C@@H]1CCCN1C(=O)[C@H](CO)NC(=O)[C@H](C)NC(=O)[C@@H](NC(=O)[C@@H](N)Cc1c[nH]cn1)C(C)C)[C@@H](C)O)C(C)C)C(=O)NCC(=O)N[C@@H](CC(C)C)C(=O)O` [hGPR8L (4-23), His-Val-Ala-Ser-Pro-Arg-Tyr -His-Thr-Val-Gly-Arg-Ala-Ala-Gly-Leu-Leu-Met-Gly-Leu] (H-HVASPRYHTVGRAAGLLMGL-OH; C-terminus assumed) was run?
The pIC50 was 5.70.

`CC(C)C[C@H](NC(=O)CNC(=O)[C@H](C)NC(=O)[C@H](C)NC(=O)[C@H](CCCNC(=N)N)NC(=O)CNC(=O)[C@@H](NC(=O)[C@@H](NC(=O)[C@H](Cc1c[nH]cn1)NC(=O)[C@H](Cc1ccc(O)cc1)NC(=O)[C@H](CCCNC(=N)N)NC(=O)[C@@H]1CCCN1C(=O)[C@H](CO)NC(=O)[C@H](C)NC(=O)[C@@H](NC(=O)[C@H](Cc1c[nH]cn1)NC(=O)[C@H](CCCCN)NC(=O)[C@H](Cc1ccc(O)cc1)NC(=O)[C@@H](N)Cc1c[nH]c2ccccc12)C(C)C)[C@@H](C)O)C(C)C)C(=O)O` [hGPR8L (1-19), Trp-Tyr-Lys-His-Val-Ala-Ser -Pro-Arg-Tyr-His-Thr-Val-Gly-Arg-Ala-Ala-Gly-Leu] (H-WYKHVASPRYHTVGRAAGL-OH; N-terminus and C-terminus assumed) was tested. Which pIC50 did it give?
The pIC50 was 8.00.

`CSCC[C@H](NC(=O)[C@H](CC(C)C)NC(=O)[C@H](CC(C)C)NC(=O)CNC(=O)[C@H](C)NC(=O)[C@H](C)NC(=O)[C@H](CCCNC(=N)N)NC(=O)CNC(=O)[C@@H](NC(=O)[C@@H](NC(=O)[C@H](Cc1c[nH]cn1)NC(=O)[C@H](Cc1ccc(O)cc1)NC(=O)[C@H](CCCNC(=N)N)NC(=O)[C@@H]1CCCN1C(=O)[C@H](CO)NC(=O)[C@H](C)NC(=O)[C@@H](NC(=O)[C@H](Cc1c[nH]cn1)NC(=O)[C@H](CCCCN)NC(=O)[C@H](Cc1ccc(O)cc1)NC(=O)[C@H](N)Cc1c[nH]c2ccccc12)C(C)C)[C@@H](C)O)C(C)C)C(=O)NCC(=O)N[C@@H](CC(C)C)C(=O)O` [[D-Trp^1]-hGPR8L (1-23), D-Trp-Tyr-Lys-His-Val -Ala-Ser-Pro-Arg-Tyr-His-Thr-Val-Gly-Arg-Ala-Ala-Gly-Leu-Leu-Met-Gly-Leu] was tested. Which pIC50 did it give?
The pIC50 was 8.89.

How did the pIC50 turn out when `CC(C)C[C@H](NC(=O)[C@H](CC(C)C)NC(=O)CNC(=O)[C@H](C)NC(=O)[C@H](C)NC(=O)[C@H](CCCNC(=N)N)NC(=O)CNC(=O)[C@@H](NC(=O)[C@@H](NC(=O)[C@H](Cc1c[nH]cn1)NC(=O)[C@H](Cc1ccc(O)cc1)NC(=O)[C@H](CCCNC(=N)N)NC(=O)[C@@H]1CCCN1C(=O)[C@H](CO)NC(=O)[C@H](C)NC(=O)[C@@H](NC(=O)[C@H](Cc1c[nH]cn1)NC(=O)[C@H](CCCCN)NC(=O)[C@H](Cc1ccc(O)cc1)NC(=O)[C@@H](N)Cc1c[nH]c2ccccc12)C(C)C)[C@@H](C)O)C(C)C)C(=O)O` [hGPR8L (1-20), Trp-Tyr-Lys-His-Val-Ala-Ser -Pro-Arg-Tyr-His-Thr-Val-Gly-Arg-Ala-Ala-Gly-Leu-Leu] (H-WYKHVASPRYHTVGRAAGLL-OH; N-terminus and C-terminus assumed) was run?
The pIC50 was 9.77.

How did the pIC50 turn out when `CC(C)[C@H](NC(=O)[C@H](Cc1c[nH]cn1)NC(=O)[C@H](CCCCN)NC(=O)[C@H](Cc1ccc(O)cc1)NC(=O)[C@@H](N)Cc1c[nH]c2ccccc12)C(=O)N[C@@H](C)C(=O)N[C@@H](CO)C(=O)N1CCC[C@H]1C(=O)N[C@@H](CCCNC(=N)N)C(=O)N[C@@H](Cc1ccc(O)cc1)C(=O)N[C@@H](Cc1c[nH]cn1)C(=O)N[C@H](C(=O)N[C@H](C(=O)NCC(=O)N[C@@H](CCCNC(=N)N)C(=O)N[C@@H](C)C(=O)N[C@@H](C)C(=O)NCC(=O)O)C(C)C)[C@@H](C)O` [hGPR8L (1-18), Trp-Tyr-Lys-His-Val-Ala-Ser -Pro-Arg-Tyr-His-Thr-Val-Gly-Arg-Ala-Ala-Gly] (H-WYKHVASPRYHTVGRAAG-OH; N-terminus and C-terminus assumed) was run?
The pIC50 was 6.12.

`CSCC[C@H](NC(=O)[C@H](CC(C)C)NC(=O)[C@H](CC(C)C)NC(=O)CNC(=O)[C@H](C)NC(=O)[C@H](C)NC(=O)[C@H](CCCNC(=N)N)NC(=O)CNC(=O)[C@@H](NC(=O)[C@@H](NC(=O)[C@H](Cc1c[nH]cn1)NC(=O)[C@H](Cc1ccc(O)cc1)NC(=O)[C@@H](N)CCCNC(=N)N)[C@@H](C)O)C(C)C)C(=O)NCC(=O)N[C@@H](CC(C)C)C(=O)O` [hGPRBL (9-23), Arg-Tyr-His-Thr-Val-Gly-Arg -Ala-Ala-Gly-Leu-Leu-Met-Gly-Leu] (H-RYHTVGRAAGLLMGL-OH; C-terminus assumed) was tested. Which pIC50 did it give?
The pIC50 was 5.60.

`CC(C)C[C@H](NC(=O)CNC(=O)[C@H](CC[S+](C)[O-])NC(=O)[C@H](CC(C)C)NC(=O)[C@H](CC(C)C)NC(=O)CNC(=O)[C@H](C)NC(=O)[C@H](C)NC(=O)[C@H](CCCNC(=N)N)NC(=O)CNC(=O)[C@@H](NC(=O)[C@@H](NC(=O)[C@H](Cc1c[nH]cn1)NC(=O)[C@H](Cc1ccc(O)cc1)NC(=O)[C@H](CCCNC(=N)N)NC(=O)[C@@H]1CCCN1C(=O)[C@H](CO)NC(=O)[C@H](C)NC(=O)[C@@H](NC(=O)[C@H](Cc1c[nH]cn1)NC(=O)[C@H](CCCCN)NC(=O)[C@H](Cc1ccc(O)cc1)NC(=O)[C@@H](N)Cc1c[nH]c2ccccc12)C(C)C)[C@@H](C)O)C(C)C)C(=O)O` (stereo partly drawn) [[Met(O)]-hGPR8L (1-23), Trp-Tyr-Lys-His-Val-Ala -Ser-Pro-Arg-Tyr-His-Thr-Val-Gly-Arg-Ala-Ala-Gly-Leu-Leu-Met(O)-Gly-Leu] was tested. Which pIC50 did it give?
The pIC50 was 9.54.

`CSCC[C@H](NC(=O)[C@H](CC(C)C)NC(=O)[C@H](CC(C)C)NC(=O)CNC(=O)[C@H](C)NC(=O)[C@H](C)NC(=O)[C@H](CCCNC(=N)N)NC(=O)CNC(=O)[C@@H](NC(=O)[C@@H](NC(=O)[C@H](Cc1c[nH]cn1)NC(=O)[C@H](Cc1ccc(O)cc1)NC(=O)[C@H](CCCNC(=N)N)NC(=O)[C@@H]1CCCN1C(=O)[C@H](CO)NC(=O)[C@H](C)NC(=O)[C@@H](NC(=O)[C@H](Cc1c[nH]cn1)NC(=O)[C@H](CCCCN)NC(=O)[C@H](Cc1ccc(O)cc1)NC(=O)CCc1c[nH]c2ccccc12)C(C)C)[C@@H](C)O)C(C)C)C(=O)NCC(=O)N[C@@H](CC(C)C)C(=O)O` [IndPr-hGPR8L (2-23)] (HELM PEPTIDE1{[O=C(CCc1c[nH]c2ccccc12)[*:2]].Y.K.H.V.A.S.P.R.Y.H.T.V.G.R.A.A.G.L.L.M.G.L}$$$$V2.0; C-terminus assumed) was tested. Which pIC50 did it give?
Its pIC50 is 9.92.

`CSCC[C@H](NC(=O)[C@H](CC(C)C)NC(=O)[C@H](CC(C)C)NC(=O)CNC(=O)[C@H](C)NC(=O)[C@H](C)NC(=O)[C@H](CCCNC(=N)N)NC(=O)CNC(=O)[C@@H](NC(=O)[C@@H](NC(=O)[C@H](Cc1c[nH]cn1)NC(=O)[C@H](Cc1ccc(O)cc1)NC(=O)[C@H](CCCNC(=N)N)NC(=O)[C@@H]1CCCN1C(=O)[C@H](CO)NC(=O)[C@H](C)NC(=O)[C@@H](NC(=O)[C@H](Cc1c[nH]cn1)NC(=O)[C@H](CCCCN)NC(=O)[C@H](Cc1ccc(O)cc1)NC(=O)[C@H](Cc1c[nH]c2ccccc12)NC(=O)OCC1c2ccccc2-c2ccccc21)C(C)C)[C@@H](C)O)C(C)C)C(=O)NCC(=O)N[C@@H](CC(C)C)C(=O)O` [Fmoc-hGPR8L (1-23)] was tested. Which pIC50 did it give?
Its pIC50 is 9.64.
